{"source": "patent US20100234351A1", "about": "“FUSED NITROGEN-COMPRISING HETEROCYCLIC COMPOUND” (TAKEDA PHARMACEUTICAL COMPANY LIMITED, priority 2006, published 2010)", "note": "Counter-ions that a name gives are not always drawn."}
{"target": "T1, HER2 intracellular domain (Homo sapiens, UniProt P04626)", "T1 construct": "made in house; host or cells: SF-21 insect cells infected with recombinant baculovirus BAC-HER2", "T1 sequence (P04626 676-1255)": "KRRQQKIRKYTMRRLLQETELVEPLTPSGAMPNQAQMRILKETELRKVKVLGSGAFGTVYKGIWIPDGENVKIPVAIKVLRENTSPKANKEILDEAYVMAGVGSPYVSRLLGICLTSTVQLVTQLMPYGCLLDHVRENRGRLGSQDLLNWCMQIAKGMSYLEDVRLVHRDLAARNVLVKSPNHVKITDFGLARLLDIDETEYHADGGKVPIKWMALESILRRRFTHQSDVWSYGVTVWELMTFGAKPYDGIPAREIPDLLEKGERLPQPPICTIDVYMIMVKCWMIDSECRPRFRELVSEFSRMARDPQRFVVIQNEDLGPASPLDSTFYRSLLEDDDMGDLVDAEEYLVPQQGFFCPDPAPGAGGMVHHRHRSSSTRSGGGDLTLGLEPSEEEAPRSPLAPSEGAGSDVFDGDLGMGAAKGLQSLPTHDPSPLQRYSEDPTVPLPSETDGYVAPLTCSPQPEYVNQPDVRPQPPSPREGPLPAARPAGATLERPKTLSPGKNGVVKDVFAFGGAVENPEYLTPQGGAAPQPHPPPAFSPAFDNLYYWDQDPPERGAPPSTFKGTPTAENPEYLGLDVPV", "test": "Measurement of HER2 kinase inhibitory activity", "format": "biochemical", "details": "compound 1.0 μM, poly-Glu:Tyr (4:1) substrate, [γ-32P]ATP, read-out: Inhibitory rate (%) at 1.0 μM", "experimental": "Human HER2 gene was cloned by RT-PCR using total RNA prepared from MCF7 cells as a template. The primer used for RT-PCR was prepared from base sequence (Genbank Accession No. M11730) information of HER2 gene, adding base sequence encoding DYKDDDD peptide and a restriction enzyme recognition sequence to a nucleotide sequence (2176-3918 of Genbank Accession No. M11730 as a base, and corresponding to 676-1255 amino acid of Genbank Accession No. NP_004439 as a protein) encoding the HER2 intracellular domain region, so that a DYKDDDD peptide tag would be attached to the N-terminus of the protein. The base sequence of the primer is shown in below.\nThe RT reaction was performed using Superscript First-Strand Synthesis System for RT-PCR (Invitrogen) and the PCR reaction was performed using KOD-plus kit (TOYOBO). The obtained PCR product was electrophoresed on agarose gel (1%), and the DNA fragment amplified by PCR was recovered from the gel, and then digested with restriction enzymes Sal I and Sph I. The DNA treated with the restriction enzymes was electrophoresed on agarose gel (1%), and the obtained DNA fragment was recovered and ligated to plasmid pFASTBAC1 (Invitrogen) digested with restriction enzymes Sal I and Sph I to give expression plasmid pFB-HER2. The base sequence of the inserted fragment was confirmed and found to be identical with the base sequence of HER2 intracellular domain (2176-3918 of Genbank Accession M11730). Furthermore, using BAC-TO-BAC Baculovirus Expression System (Invitrogen), recombinant baculovirus BAC-HER2 was prepared.\nSF-21 cells were sown at 1×10^6 cells/mL to 1 L of Sf-900II SFM medium (Invitrogen) containing 10% fetal calf serum (trace), 50 mg/L gentamicin (Invitrogen) and 0.1% Pluronic F-68 (Invitrogen), and cultured with shaking in 2 L volume Erlenmeyer flask at 27° C., 100 rpm. After culturing for 24 hr, recombinant baculovirus BAC-HER2 (13.4 mL) was added thereto, and the cells were further cultured for 3 days. The culture medium was centrifuged at 2,000 rpm for 5 min to give virus-infected cells. The infected cells were washed with phosphate buffered saline (Invitrogen), centrifuged under the same conditions, and preserved at −80° C. The cryopreserved cells were thawed in ice and suspended in buffer A (50 mM Tris buffer (30 mL, pH 7.4) containing 20% glycerol, 0.15 M NaCl) supplemented with Complete Protease Inhibitor (Boehringer). The cells were ruptured 3 times with a Polytron homogenizer (Kinematica) at 20,000 rpm for 30 sec. The disrupt was clarified by centrifugation at 40,000 rpm for 30 min and filtered with a 0.45 μm filter. The filtrate was passed through a column packed with Anti-FLAG M2 Affinity Gel (4 mL, Sigma Aldrich CO.) at a flow rate of about 0.5 mL/min. The column was washed with buffer A, and eluted with buffer A containing 100 μg/mL of FLAG peptide. The eluate was concentrated with Vivaspin 20 (Vivascience) having a molecular weight cut off of 30K. The concentrate was purified by gel filtration using Hi-Load 16/60 Superdex 200pg (GE Healthcare Bioscience) equilibrated with buffer A. The fractions containing HER2 intracellular domain were collected and cryopreserved at −80° C.\nHER2 kinase reaction was carried out using 96-well plate. As a buffer for Kinase reaction, a buffer of a composition of 50 mM Tris-HCl (pH 7.5), 5 mM MnCl2, 2 mM dithiothreitol and 0.01% Tween-20 was used. The compound of the present invention was dissolved in dimethyl sulfoxide (DMSO), and diluted with a buffer for kinase reaction so that the DMSO concentration would become 0.1% during kinase reaction. The compound solution (10 μL) was mixed with a buffer for kinase reaction (20 μL) containing the HER2 intracellular domain (0.625 μg/mL) obtained in Experimental Example 1B and a polypeptide substrate poly-Glu:Tyr (4:1) (12.5 μg/mL, Sigma Ltd.) and the mixture was stood for 5 min at room temperature. […]", "units": {"inhibition at 1 µM": "%"}}
{"smiles": "CC(C)(C)NC(=O)c1cccc(Oc2ccc(Nc3ncnc4c3C=C(CNC(C)(C)CS(=O)(=O)CCO)CCN4)cc2Cl)c1", "note": "[Example 214, N-(tert-butyl)-3-[2-chloro-4-({6-[({2-[(2-hydroxyethyl)sulfonyl]-1,1-dimethylethyl}amino)methyl]-8,9-dihydro-7H-pyrimido[4,5-b]azepin-4-yl}amino)phenoxy]benzamide dihydrochloride]", "inhibition at 1 µM": 99}
{"smiles": "CC(C)(C)NC(=O)c1cccc(Oc2ccc(Nc3ncnc4c3C=C(/C=N/OCCO)CCN4)cc2Cl)c1", "note": "[Example 231, N-(tert-butyl)-3-{2-chloro-4-[(6-{[(2-hydroxyethoxy)imino]methyl}-8,9-dihydro-7H-pyrimido[4,5-b]azepin-4-yl)amino]phenoxy}benzamide]", "inhibition at 1 µM": 97}
{"smiles": "CC(C)(C)OC(=O)N1CCC(Oc2ccc(Nc3ncnc4c3C=C(CO)CCN4)cc2Cl)CC1", "note": "[Example 146, tert-butyl 4-(2-chloro-4-{[6-(hydroxymethyl)-8,9-dihydro-7H-pyrimido[4,5-b]azepin-4-yl]amino}phenoxy)piperidine-1-carboxylate]", "inhibition at 1 µM": 92}
{"smiles": "COC(=O)C1=Cc2c(ncnc2Nc2ccc(Oc3cccc(C(=O)NC(C)(C)C)c3)c(Cl)c2)NCC1", "note": "[Example 135, methyl 4-[(4-{3-[(tert-butylamino)carbonyl]phenoxy}-3-chlorophenyl)amino]-8,9-dihydro-7H-pyrimido[4,5-b]azepine-6-carboxylate]", "inhibition at 1 µM": 97}
{"smiles": "CC(C)(CS(=O)(=O)CCO)NC(=O)C1=Cc2c(ncnc2Nc2ccc(Oc3cccc(C(F)(F)F)c3)c(Cl)c2)NCC1", "note": "[Example 172, 4-({3-chloro-4-[3-(trifluoromethyl)phenoxy]phenyl}amino)-N-{2-[(2-hydroxyethyl)sulfonyl]-1,1-dimethylethyl}-8,9-dihydro-7H-pyrimido[4,5-b]azepine-6-carboxamide]", "inhibition at 1 µM": 95}
{"smiles": "CC(C)(C)NC(=O)c1cccc(Oc2ccc(Nc3ncnc4c3C=C(CNCCF)CCN4)cc2Cl)c1", "note": "[Example 234, N-(tert-butyl)-3-{2-chloro-4-[(6-{[(2-fluoroethyl)amino]methyl}-8,9-dihydro-7H-pyrimido[4,5-b]azepin-4-yl)amino]phenoxy}benzamide]", "inhibition at 1 µM": 98}
{"smiles": "CCOC(=O)/C=C/C1=Cc2c(ncnc2Nc2ccc(Oc3cccc(C(=O)NC(C)(C)C)c3)c(Cl)c2)NCC1", "note": "[Example 246, ethyl (2E)-3-{4-[(4-{3-[(tert-butylamino)carbonyl]phenoxy}-3-chlorophenyl)amino]-8,9-dihydro-7H-pyrimido[4,5-b]azepin-6-yl}acrylate]", "inhibition at 1 µM": 98}
{"smiles": "COC(=O)C1=Cc2c(ncnc2Nc2cnc(Oc3cccc(C(=O)NC(C)(C)C)c3)c(Cl)c2)NCC1", "note": "[Example 220, methyl 4-[(6-{3-[(tert-butylamino)carbonyl]phenoxy}-5-chloropyridin-3-yl)amino]-8,9-dihydro-7H-pyrimido[4,5-b]azepine-6-carboxylate]", "inhibition at 1 µM": 96}
{"smiles": "CC(C)(CS(=O)(=O)CCO)NC(=O)C1=Cc2c(ncnc2Nc2ccc(Oc3cccc(S(=O)(=O)CC4CC4)c3)c(Cl)c2)NCC1", "note": "[Example 227, 4-[(3-chloro-4-{3-[(cyclopropylmethyl)sulfonyl]phenoxy}phenyl)amino]-N-{2-[(2-hydroxyethyl)sulfonyl]-1,1-dimethylethyl}-8,9-dihydro-7H-pyrimido[4,5-b]azepine-6-carboxamide]", "inhibition at 1 µM": 93}
{"smiles": "CN(CCS(C)(=O)=O)CC1=Cc2c(ncnc2Nc2ccc(Oc3cccc(C(=O)NC(C)(C)C)c3)c(Cl)c2)NCC1", "note": "[Example 242, N-(tert-butyl)-3-(2-chloro-4-{[6-({methyl[2-(methylsulfonyl)ethyl]amino}methyl)-8,9-dihydro-7H-pyrimido[4,5-b]azepin-4-yl]amino}phenoxy)benzamide]", "inhibition at 1 µM": 99}
{"target": "T2, EGFR intracellular domain (Homo sapiens, UniProt P00533)", "T2 construct": "made in house; host or cells: SF-21 insect cells infected with recombinant baculovirus BAC-EGFR", "T2 sequence (P00533 669-1210)": "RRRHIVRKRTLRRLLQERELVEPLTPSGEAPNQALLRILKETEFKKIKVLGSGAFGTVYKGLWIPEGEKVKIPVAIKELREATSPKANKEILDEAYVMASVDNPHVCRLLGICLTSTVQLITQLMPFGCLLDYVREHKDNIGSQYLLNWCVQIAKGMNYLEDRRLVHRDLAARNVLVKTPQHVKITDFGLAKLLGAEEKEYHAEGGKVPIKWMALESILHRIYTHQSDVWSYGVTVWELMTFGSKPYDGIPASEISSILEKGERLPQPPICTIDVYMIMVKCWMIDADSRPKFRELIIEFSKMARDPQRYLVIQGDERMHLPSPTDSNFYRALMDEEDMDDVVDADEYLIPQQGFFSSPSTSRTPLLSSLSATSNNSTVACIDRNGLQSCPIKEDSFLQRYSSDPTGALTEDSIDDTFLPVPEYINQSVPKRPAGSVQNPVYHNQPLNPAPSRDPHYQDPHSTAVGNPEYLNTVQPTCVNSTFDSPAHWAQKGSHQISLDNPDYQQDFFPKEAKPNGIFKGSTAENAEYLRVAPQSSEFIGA", "test": "Assay of EGFR kinase inhibitory activity", "format": "biochemical", "details": "compound 1.0 μM, poly-Glu:Tyr (4:1) substrate, [γ-32P]ATP, read-out: Inhibitory rate (%) at 1.0 μM", "experimental": "Human EGFR gene was cloned by RT-PCR using total RNA prepared from A431 cell as a template. The primer used for RT-PCR was prepared from base sequence (Genbank Accession No. X00588) information of EGFR gene, adding DYKDDDD base sequence encoding the peptide and a restriction enzyme recognition sequence to a base sequence (2191-3819 of Genbank Accession No. X00588 as a base, and corresponding to 669-1210 amino acid of Genbank Accession No. NP_005219 as a protein) encoding the EGFR intracellular domain, so that a DYKDDDD peptide tag would be attached to the N-terminus of the protein. The base sequence of the primer is shown in below.\nThe RT reaction was performed using Superscript First-Strand Synthesis System for RT-PCR (Invitrogen), and PCR reaction was performed using KOD-plus kit (TOYOBO). The obtained PCR product was electrophoresed on agarose gel (1%), and the DNA fragment amplified by PCR was recovered from the gel, and then digested with restriction enzymes Sal I and Sph I. The DNA treated with the restriction enzymes was electrophoresed on agarose gel (1%), and the obtained DNA fragment was recovered and ligated to plasmid pFASTBAC1 (Invitrogen) digested with restriction enzymes Sal I and Sph I to give expression plasmid pFB-EGFR. The base sequence of the inserted fragment was confirmed and found to be identical with the base sequence of the EGFR intracellular domain (2191-3819 of Genbank Accession X00588). Furthermore, virus stock BAG-EGFR of recombinant Baculovirus was prepared using BAC-TO-BAC Baculovirus Expression System (Invitrogen).\nSF-21 cells were sown at 1×10^6 cells/mL to 1 L of Sf-900II SFM medium (Invitrogen) containing 10% fetal calf serum (trace), 50 mg/L Gentamicin (Invitrogen) and 0.1% Pluronic F-68 (Invitrogen), and cultured with shaking in a 2 L Erlenmeyer flask at 27° C., 100 rpm. After culture for 24 hr, recombinant Baculovirus BAC-EGFR (13.4 mL) was added thereto, and the cells were further cultured for 3 days. The culture medium was centrifuged at 2,000 rpm for 5 min to give virus infected cells. The infected cells were washed with phosphate buffered saline (Invitrogen), centrifuged under the same conditions, and preserved at −80° C. The cryopreserved cells were thawed in ice and suspended in 30 mL of buffer A containing Complete Protease Inhibitor (Boehringer) (50 mM tris buffer (pH 7.4) containing 20% Glycerol, 0.15 M NaCl). The cells were disrupted 3 times at 20,000 rpm for 30 sec using a polytron homogenizer (Kinematica). The disrupt was clarified by centrifugation at 40,000 rpm for 30 min and filtered through a 0.45 μm filter. The filtrate was passed through a column packed with 4 mL of Anti-FLAG M2 Affinity Gel (Sigma Aldrich Co.) at a flow rate of about 0.5 mL/min. The column was washed with buffer A, and eluted with buffer A containing 100 μg/mL of FLAG peptide. The eluate was concentrated with Vivaspin 20 having a molecular weight cut off of 30 K (Vivascience). The concentrate was purified by gel filtration using Hi-Load 16/60 Superdex 200 pg (GE Healthcare Bioscience) equilibrated with buffer A. The fractions containing EGFR intracellular domain were collected and cryopreserved at −80° C.\nEGFR kinase reaction was carried out using a 96-well plate. As a buffer for Kinase reaction, a buffer of a composition of 50 mM Tris-HCl (pH 7.5), 5 mM MnCl2, 2 mM dithiothreitol and 0.01% Tween-20 was used. […]", "units": {"inhibition at 1 µM": "%"}}
{"smiles": "O=C(NCC(O)CO)C1=Cc2c(ncnc2Nc2ccc(Oc3cccc(C(F)(F)F)c3)c(Cl)c2)NCC1", "note": "(stereo not drawn) [Example 136, 4-({3-chloro-4-[3-(trifluoromethyl)phenoxy]phenyl}amino)-N-(2,3-dihydroxypropyl)-8,9-dihydro-7H-pyrimido[4,5-b]azepine-6-carboxamide]", "inhibition at 1 µM": 97}
{"smiles": "O=C(NCCS(=O)(=O)CCO)C1=Cc2c(ncnc2Nc2ccc(Oc3cccc(C(F)(F)F)c3)c(Cl)c2)NCC1", "note": "[Example 147, 4-({3-chloro-4-[3-(trifluoromethyl)phenoxy]phenyl}amino)-N-{2-[(2-hydroxyethyl)sulfonyl]ethyl}-8,9-dihydro-7H-pyrimido[4,5-b]azepine-6-carboxamide]", "inhibition at 1 µM": 95}
